According to patent US9783503B2, “Crystalline forms of an estrogen receptor modulator” (Genentech, Inc., priority 2014, dated 2017):
Entries after “also recorded” stand apart in the source; their conditions may differ. Structures can show the parent of a compound that is named as a salt.

Experiments:
[1] = tested on: breast tumor cell; assay: Breast tumor cell proliferation; assay type: cell-based
[2] = tested on: xenograft models of ER+ breast cancer; assay: Tamoxifen-sensitive and tamoxifen-resistant xenograft models of ER+ breast cancer; assay type: in vivo
[3] = Oral bioavailability; conditions: in vivo
[4] = Static storage stability at elevated humidity, checked by XRPD; assay type: physicochemical
Excerpt: X-Ray powder diffraction patterns were collected on a Bruker AXS C2 GADDS or a Bruker AXS D8 Advance diffractometer.

[5] = Gravimetric Vapor Sorption (GVS); assay type: physicochemical
Experimental: Sorption isotherms were obtained using a SMS DVS Intrinsic moisture sorption analyzer, controlled by DVS Intrinsic Control software v1.0.0.30. The sample temperature was maintained at 25° C. by the instrument controls. The humidity was controlled by mixing streams of dry and wet nitrogen, with a total flow rate of 200 mL/min. The relative humidity was measured by a calibrated Rotronic probe (dynamic range of 1.0-100% RH), located near the sample. The weight change, (mass relaxation) of the sample as a function of % RH was constantly monitored by the microbalance (accuracy+0.005 mg).
Typically 5-20 mg of sample was placed in a tared mesh stainless steel basket under ambient conditions. The sample was loaded and unloaded at 40% RH and 25° C. (typical room conditions). A moisture sorption isotherm was performed as outlined below (2 scans giving 1 complete cycle). The standard isotherm was performed at 25° C. at 10% RH intervals over a 0-90% RH range. Data analysis was undertaken in Microsoft Excel using DVS Analysis Suite v6.0.0.7.
The sample was recovered after completion of the isotherm and re-analyzed by XRPD.

[6] = Thermodynamic aqueous solubility; conditions: for solubility at 24 h: water, 25 °C, thermodynamic from solid
Experimental: The suspension was equilibrated at 25° C. for 24 hours then the pH was measured. The suspension was then filtered through a glass fibre C filter. […] Different volumes of the standard, diluted and undiluted sample solutions were injected.
Analysis was performed on an Agilent HP1100 series system equipped with a diode array detector and using ChemStation software vB.02.01-SR1.

CC/C(=C(/c1ccc(/C=C/C(=O)O)cc1)c1ccc2[nH]ncc2c1)c1ccc(F)cc1Cl [(E)-3-(4-((E)-2-(2-Chloro-4-fluorophenyl)-1-(1H-indazol-5-yl)but-1-en-1-yl)phenyl)acrylic acid]
breast tumor cell proliferation [1]: inhibition of breast tumor cell proliferation
anti-tumor activity ([2]; both tamoxifen-sensitive and tamoxifen-resistant xenograft models): dose dependent anti-tumor activity
ER-α tumor levels ([2]; tamoxifen-resistant xenograft models): reduction of ER-α tumor levels
Efficacious doses ([2]; xenograft models of ER+ breast cancer): 1 to 100 mg/kg/day
oral bioavailability [3]: good oral bioavailability

C[C@]12CC[C@@H]3c4ccc(O)cc4C[C@@H](CCCCCCCCC[S+]([O-])CCCC(F)(F)C(F)(F)F)[C@H]3[C@@H]1CC[C@@H]2O (stereo partly shown) [fulvestrant, reference compound]
efficacy compared with the free acid ([2]; in some of these models): less efficacious

CC/C(=C(/c1ccc(/C=C/C(=O)O)cc1)c1ccc2[nH]ncc2c1)c1ccc(F)cc1Cl [Pattern 2, (E)-3-(4-((E)-2-(2-chloro-4-fluorophenyl)-1-(1H-indazol-5-yl)but-1-en-1-yl)phenyl)acrylic acid, N-methyl glucamine salt]
change of XRPD pattern after storage ([4]; 40° C. and 75% RH for 7 days): converted to Form 1

CC/C(=C(/c1ccc(/C=C/C(=O)O)cc1)c1ccc2[nH]ncc2c1)c1ccc(F)cc1Cl [Form 1, (E)-3-(4-((E)-2-(2-chloro-4-fluorophenyl)-1-(1H-indazol-5-yl)but-1-en-1-yl)phenyl)acrylic acid, N-methyl glucamine salt]
hysteresis of sorption isotherm ([5]; 0-90% RH, 25° C.): no hysteresis
change of XRPD pattern after GVS analysis ([5]; after completion of the isotherm): No change in the XRPD pattern
mass uptake ([5]; between 0-90% RH, 25° C.): ca. 4.75%
change of XRPD pattern after storage ([4]; 25° C. and 96% RH for 7 days): no visible change; also recorded: No difference in the XRPD patterns
change of XRPD pattern after storage ([4]; 40° C. and 75% RH for 7 days): no visible change; also recorded: no difference in the XRPD patterns
change by XRPD upon extended storage ([4]; extended storage in high humidity conditions at 40° C.): no visible change
pH of saturated aqueous solution ([6]; saturated aqueous solution, 25° C., 24 hours): about 5.45
solubility at 24 h ([6]; pH 5.45, water, aqueous solubility, saturated aqueous solution, equilibrated at 25° C. for 24 hours): 15.8 mg/mL

CC/C(=C(/c1ccc(/C=C/C(=O)O)cc1)c1ccc2[nH]ncc2c1)c1ccc(F)cc1Cl [N-Methylglucamine, (2S,3R,4R,5R)-2,3,4,5,6-pentahydroxy-N-methylhexan-1-aminium (E)-3-(4-((E)-2-(2-chloro-4-fluorophenyl)-1-(1H-indazol-5-yl)but-1-enyl)phenyl)acrylate]
solubility at 24 h ([6]; Solubility, aqueous, crystalline salt prepared from MeCN (300 Vols)): 10.6 mg/mL
